Measurements from patent US20250381110A1, “SKIN CARE COMPOSITION AND METHOD OF USING THE SAME” (THE PROCTER & GAMBLE COMPANY, priority 2024, published 2025).
Where a name gives a salt, the structure may show the parent alone. Where a SMILES comes first, the peptide text is derived from it. Bridges are numbered along the chain shown (N, C = ends). [ ]: non-standard residue; d: D form. The star is where a group is joined. Ileψ(thiazoline)Cys = CC[C@H](C)[C@H](N)C1=N[C@H](C(=O)*)CS1; dOrn = NCCC[C@@H](N)C(=O)O

Tested on: p62-dependent mitophagy
Assay: Luciferase-p62 assay (Fluc-p62 clearance) in mouse embryonic fibroblasts
Format: cell-based
Settings: for Mean Luminescence: Luciferase-p62 assay, mouse embryonic fibroblasts (MEFs), compounds at 10 μM; for % Activity over baseline: percentage of Luciferase-p62 clearance relative to baseline (mean luminescence in the absence of doxycycline induction); for % Activity over baseline / % Activity relative to Rapamycin: MEFs, 10 μM; for % Activity relative to Rapamycin: percentage of activity relative to rapamycin tested in the same experiment at the same concentration
Description: To identify p62-dependent materials which increase mitophagy, a Luciferase-p62 Assay was established. This method provides an approach to measure the ability of a material to modulate p62-dependent mitophagy by using an inducible firefly luciferase-p62 (Fluc-p62) reporter cell system. In this assay, p62 levels are driven by doxycycline treatment. After levels increased, expression of Fluc-p62 is turned off by removal of doxycycline, materials are then added and assessed for how they affect clearance of Fluc-p62 protein, which is proportionate to cellular mitophagy rates (Kelly et al.). The negative control is doxycycline induced Luc-p62 in the absence of compound or bioactive material treatment and in the presence of vehicle (DMSO).
Test materials including bioactive materials were screened in mouse embryonic fibroblasts (MEFs, Harada et al.) expressing the TET-inducible p62-fluc construct as previously described (Brown et al.). […] Gibson assembly was used to insert firefly luciferase (Fluc) and p62 into the pCW57.1 backbone. Fluc, p62, and pCW57.1 were polymerase chain reaction (PCR) amplified using pfu polymerase (Life technologies) and Gibson assembly primers with 20 base pair (bp) overhangs. PCR products were separated by agarose gel electrophoreses, and fragments excised and purified before use in DNA assembly reaction with NEBuilder HiFi DNA Assembly kit (New England Biolabs). After the assembly, the reaction mix was transformed into NEB3040 Stable Competent Escherichia coli (New England Biolabs). After 24 hours growth at 31 degrees Celsius the plasmid was extracted using QIAprep Spin Miniprep kit (Qiagen). The plasmid was sequenced to confirm correct insertion of Fluc-p62. To generate MEFs stably expressing doxycycline inducible Fluc-p62, HEK293FT cells were transfected with Fluc-p62-pCW57.1 and the ViraPower Packaging Mix (Invitrogen) to produce lentivirus. MEFs were transduced with the obtained lentiviral stock following followed by selection with 1 microgram per milliliter puromycin.Fluc-p62expressing MEFs were maintained in DMEM supplemented with 10 percent fetal bovine serum (FBS), 100 units per milliliter penicillin/streptomycin, and 2 millimolar L-glutamine in a humidified atmosphere containing 5 percent carbon dioxide at 37 degrees Celsius. Cells were plated into white 96 well plates (2,000 cells per well with 100 microliters media) and allowed to settle for 24 hours. […] Subsequently, cells were treated with test materials for 48 hours in normal growth medium and analysed using ONE-Glo™+Tox Luciferase Reporter and Cell Viability Assay (Promega) by following the manufacturer's protocol.
Test compositions and control compositions were prepared as described above in the Luciferase-p62 assay (Method 3) and tested accordingly. The compounds used in this example, as examples of bioactive materials, were from the APExBIO DiscoveryProbe™ Natural Product Library Plus (Houston, TX) and evaluated at equivalent concentrations (10 μM).
Data are additionally calculated as percentage of activity relative to rapamycin, a benchmark control compound tested in the same experiment.

| Compound | Mean Luminescence | % Activity over baseline [%] | % Activity relative to Rapamycin [%] |
| --- | --- | --- | --- |
| OCCc1ccc(O)c(O)c1 [Hydroxytyrosol] | 839.13 | 48.14 | 86.74 |
| CC(C)(CO)C(O)C(=O)NCCC(=O)[O-].CC(C)(CO)C(O)C(=O)NCCC(=O)[O-].[Ca+2] [Calcium D-Panthotenate] | 981.67 | 39.33 | 70.87 |
| CC[C@@H](C(=O)[C@@H](C)[C@@H](O)[C@H](C)[C@@H]1O[C@@H]([C@@H](CC)C(=O)O)CC[C@@H]1C)[C@H]1O[C@]2(C=C[C@@H](O)[C@]3(CC[C@@](C)([C@H]4CC[C@](O)(CC)[C@H](C)O4)O3)O2)[C@H](C)C[C@@H]1C [Salinomycin] | 792.70 | 51.01 | 91.91 |
| Bacitracin Zinc | 919.94 | 43.15 | 77.74 |
| Nc1nc(=O)c2c([nH]1)NCC(CNc1ccc(C(=O)N[C@@H](CCC(=O)O)C(=O)O)cc1)N2C=O (mixture of isomers) [Folinic acid] | 762.92 | 52.85 | 95.22 |
| N[C@@H]1CCCCN(c2c(F)cc3c(=O)c(C(=O)O)cn(C4CC4)c3c2Cl)C1 [Besifloxacin HCl] | 777.82 | 51.93 | 93.56 |
| CC1(C)C2CCC1(C)C(O)C2 (stereo not shown) [(—)-Borneol] | 967.20 | 40.23 | 72.48 |
| C[C@H]1O[C@@H](O[C@H]2CC[C@@]3(C)[C@@H](CC[C@]4(C)[C@@H]3C=C[C@]35OC[C@@]6(CCC(C)(C)C[C@H]63)[C@@H](O)C[C@]54C)[C@]2(C)CO)[C@H](O)[C@@H](O[C@@H]2O[C@H](CO)[C@@H](O)[C@H](O)[C@H]2O)[C@H]1O [Saikosaponin A] | 561.50 | 65.30 | 117.65 |
| C[C@]12C[C@H](O)[C@H]3[C@@H](CCC4=CC(=O)CC[C@@]43C)[C@@H]1CC[C@@H]2C(=O)CO [Corticosterone] | 870.00 | 46.23 | 83.30 |
| CC1=C(/C=C/C(C)=C/C=C/C(C)=C/C=O)C(C)(C)CCC1 [all-trans Retinal] | 967.12 | 40.23 | 72.49 |
| O=c1[nH]cc(F)c(=O)[nH]1 [Fluorouracil (Adrucil)] | 848.60 | 47.56 | 85.68 |
| CC1(C)O[C@H]2CC(=O)OC[C@]23[C@H]2CC[C@@]4(C)[C@H](c5ccoc5)OC(=O)[C@H]5O[C@]54[C@]2(C)C(=O)C[C@@H]13 [Limonin] | 753.03 | 53.46 | 96.33 |
| Clc1ccc(COC(Cn2ccnc2)c2ccc(Cl)cc2Cl)cc1 (stereo not shown) [Econazole nitrate] | 359.76 | 77.77 | 140.12 |
| O=C1O[C@H]([C@@H](O)CO)C(O)=C1O [Vitamin C] | 962.07 | 40.54 | 73.05 |
| COC(=O)[C@H]1[C@H]2C[C@@H]3c4[nH]c5cc(OC)ccc5c4CCN3C[C@H]2C[C@@H](OC(=O)c2cc(OC)c(OC)c(OC)c2)[C@@H]1OC [Reserpine] | 915.14 | 43.44 | 78.27 |
| Oc1ccc(OC2CCCCO2)cc1 (stereo not shown) [Deoxyarbutin] | 653.14 | 59.64 | 107.45 |

| Compound | Mean Luminescence | % Activity over baseline [%] | % Activity relative to Rapamycin [%] |
| --- | --- | --- | --- |
| O=C(CCc1ccc(O)cc1)c1c(O)cc(O)cc1O [Phloretin] | 912.42 | 43.61 | 78.58 |
| O=C1c2cccc3c2[C@H](CCC3)CN1[C@@H]1CN2CCC1CC2 [Palonosetron HCl] | 915.97 | 43.39 | 78.18 |
| Oc1c(Cl)cc(Cl)c2cccnc12 [Chloroxine] | 272.45 | 83.16 | 149.84 |
| CC[C@]12CCCN3CCc4c(n(c5ccccc45)[C@@](O)(C(=O)OC)C1)[C@@H]32 [Vincamine] | 716.24 | 55.74 | 100.42 |
| CC(C)C(=O)C(=O)O [Ketoisovaleric acid] | 921.08 | 43.08 | 77.61 |
| Cc1cnc(C)cn1 [2,5-Dimethyl pyrazine] | 842.32 | 47.94 | 86.38 |
| CC1=C2C[C@H]3[C@@H](CC=C4C[C@@H](O)CC[C@@]43C)[C@@H]2CC[C@]12O[C@@H]1C[C@H](C)CN[C@H]1[C@H]2C [Cyclopamine] | 471.92 | – | – |
| CC[C@H]1CN2CC[C@H]1C[C@@H]2[C@@H](O)c1ccnc2ccc(OC)cc12 [Hydroquinidine] | 958.47 | 40.77 | 73.45 |
| Picrotoxin | 868.69 | 46.31 | 83.45 |
| O=c1oc2cc(O)ccc2c2ccc(O)cc12 [Urolithin A] | 884.12 | 45.36 | 81.73 |
| Cc1cnc(C(=O)O)c[n+]1[O-] [Acipimox] | 922.85 | 42.97 | 77.42 |
| CC1=C[C@]23C(=O)[C@@H](C=C(CO)[C@@H](O)[C@]2(O)[C@H]1O)[C@H]1[C@@H](C[C@H]3C)C1(C)C [Ingenol] | 930.73 | 42.48 | 76.54 |
| CC1=C2C(=O)O[C@@H](c3ccoc3)[C@]2(C)CCC1 [Fraxinellone] | 972.50 | 39.90 | 71.89 |
| O=c1cc(-c2ccccc2)oc2c1ccc1ccccc12 [α-Naphthoflavone] | 781.48 | 51.70 | 93.16 |
| CC[C@H](C)[C@H](N)C1=N[C@H](C(=O)N[C@@H](CC(C)C)C(=O)N[C@H](CCC(=O)O)C(=O)N[C@H](C(=O)N[C@H]2CCCCNC(=O)[C@H](CC(N)=O)NC(=O)[C@@H](CC(=O)O)NC(=O)[C@H](Cc3cnc[nH]3)NC(=O)[C@@H](Cc3ccccc3)NC(=O)[C@H]([C@@H](C)CC)NC(=O)[C@@H](CCCN)NC2=O)[C@@H](C)CC)CS1 [Bacitracin] ({Ileψ(thiazoline)Cys}-L[dE]IK[dOrn]I[dF]H[dD]N; lactam 4-C) | 860.05 | 46.85 | 84.41 |
